≈ marks a conversion by molar mass, not a printed value. Where two headings read alike, the source gives them in different places.
Columns and labels:
[1] = test system: HT29 cells; test: First order rate constant for anoxic metabolism in HT29 cells (kmet); type: in vitro ADME, human; conditions: rate constant of bioreductive metabolism, Table 1
Method: The apparent first order rate constants for anoxic metabolism in HT29 cells (kmet) of compounds representative of the invention were either: • 1. Estimated at the C10 experimentally by incubating stirred single cell suspensions (typically 10 ml at 2×10^6/ml of HT29 cells derived by trypsinisation of multicellular spheroids) in αMEM without serum in 20 ml bottles under flowing 5% CO2/N2 for 90 min, then introducing the compound using deoxygenated DMSO stock solutions to give a range of final drug concentrations. Samples (0.5 ml) were removed at intervals (typically 5 min, 30 min, 1,2,3 hr), washed by centrifugation, and plated to determine the number of clonogenic survivors as described by Hicks et al Cancer Res. 2003 63, 5970. The concentration of compound giving 1 log of kill at 1 hr (C10) was estimated by interpolation. Additional samples taken at the same times were centrifuged to remove cells, and supernatant stored at −80° C. for subsequent HPLC or LCMS analysis. The concentration of compound in the extracellular medium was plotted against time and the concentration closest to the C10 was used to estimate the first order rate constant. This was scaled to MCL cell density as described in Hicks et al, Cancer Res. 2003, 63, 5970 to obtain kmet. Cell viability was determined with a hemocytometer at the end of drug exposure by staining with 0.4% trypan blue to ensure metabolic viability was >75%. TPZ (30 μM) was included in each experiment as a reference compound. O2, in solution was measured using an OxyLite O2 luminescent fiber optic probe (Oxford Optronix Ltd, UK) to ensure severe hypoxia (<0.1 μM).

[2] = Solubility in culture medium; type: physicochemical; conditions: culture medium (αMEM with 5% foetal bovine serum), plasma or biological fluid, thermodynamic from solid; culture medium (αMEM, 5% foetal bovine serum), pH 7.4; no unit in table, threshold is 2 mM
Method: Solubility is determined in laboratory culture medium (alpha minimal essential medium (αMEM) with 5% foetal bovine serum) saturated with 5% carbon dioxide at pH 7.4, by addition of excess compound and sonication at ambient temperature for 15 minutes. Alternatively the compound is diluted from a concentrated stock solution in DMSO into culture medium to give a final DMSO concentration <1%. The mixture is centrifuged at 13,000 rpm for 6 minutes and the concentration of drug in the supernatant solution is then determined by HPLC using a standard reference solution in a suitable solvent.

[3] = Plasma pharmacokinetics, AUC of free drug in CD-1 nude mice; type: in vivo, mouse; conditions: for AUC: CD-1 nude, mouse, ip
Method: The area under the concentration time curve for free drug (AUCf) in mouse plasma at the maximum tolerated dose (MTD) was determined either experimentally or by calculation.
The compound was formulated in a suitable vehicle (e.g. 0.9% saline, 5% DMSO in 0.9% saline) and administered intraperitoneally (i.p.) as single dose to CD-1 nude mice in a dose-escalating format using 1.33-fold dose increments.
The compound was administered to CD-1 nude mice in a suitable formulation as a single dose (i.p.) at the MTD. Blood samples were collected by retro-orbital sinus bleed or cardiac puncture after which the mouse was culled, or by serial bleeding from the tail vein. Typical time points were 15, 30, 60, and 120 min after administration. Blood was collected in a heparinised container and centrifuged to collect the plasma. The plasma concentration of the compound was determined by HPLC or LCMS using suitable sample preparation and analytical methods. Calibration was done with internal or external standards. The area under the concentration-time curve (AUC) for total (free plus bound) drug was calculated using the linear/log trapezoidal rule and extrapolation to infinity OR standard non-compartmental (PK) modelling.
Plasma protein binding was measured by the determination of the free fraction (FF) by equilibrium dialysis at 37° C. in 50% (v/v) mouse plasma in phosphate-buffered saline (pH 7.4), using a single drug concentration at or near the observed or extrapolated maximum concentration in plasma (Cmax). Compound concentrations after dialysis were determined by HPLC or LCMS.
AUCf for the compound administered as a single dose (i.p.) to CD-1 nude mice at the MTD can be estimated using the following regression equation: Log10(AUCf)=a+b×log Pneutral+c×log10(IC50)+d×log10(HCR)+e×log10(DMCL)+f×log10(kmet)+g×(log Pneutral)^2 where the coefficients are described in the following table: […]

[4] = test system: hypoxic cells in HT29 tumours; test: HT29 excision assay (drug after 20 Gy radiation, clonogenic survival); type: in vivo, human; conditions: for HT29 log kill: log10 kill of hypoxic cells in HT29 tumours, additional to radiation alone, MTD or 75% of MTD, Table 2
Text: In order to test the validity of this PK/PD model as a tool for predicting the antitumour activity of TPZ analogues, the inventors determined the key PK/PD parameters for 13 TPZ analogues, and TPZ itself, for the HT29 human colon carcinoma cell line. These parameters were then used to calculate the expected killing in hypoxic regions of HT29 tumours following a single intraperitoneal dose of the compounds at their maximum tolerated dose. The results of this calculation were then compared with measured killing of hypoxic cells in HT29 tumours, determined by administering the compounds immediately (within 5 min) after gamma irradiation (cobalt 60, 20 Gy) to sterilise oxygenated cells in the tumours. Tumours were removed 18 hours later and the number of surviving cells determined by clonogenic assay. The measured PK/PD parameters, model prediction (using the above 3D microvascular network), and experimentally determined hypoxic cell kill is shown in Table 1, and the relationship between predicted and measured cell kill in FIG. 4. The prediction is statistically highly significant (p=0.001, Fisher exact test). […] If the extravascular transport component was excluded from the model, the R^2 for this regression was only 0.28 and the relationship was not statistically significant.
Animals were treated with radiation alone (RAD, 20 Gy whole body); RAD+TPZ (316 μmol/kg); compound 3 (562 μmol/kg); RAD+compound 3 (562 μmol/kg). Tumours were excised 18 hr after treatment and clonogenic survival determined by staining colonies 14 days later. Each symbol represents a separate tumour. p<0.01 (one way ANOVA with Dunnett's test) for RAD+compound 3 and for RAD+TPZ versus RAD only. Horizontal lines are the historical means for untreated controls (upper line) and 20 Gy radiation only (lower line).
Compounds were evaluated with single dose radiation using s.c. HT29 tumors (average of two largest diameters 7-10 mm) grown by inoculating 10^7 cells (obtained by enzymatic dissociation of multicellular spheroids). Drugs were administered as single i.p. doses at their MTD with the following groups in each experiment. A: vehicle control, B: test drug, C: Radiation (20 Gy, cobalt-60, whole body irradiation), D: TPZ (316 μmol/kg) 5 min after radiation, E: Test drug 5 min after radiation. Each group included 3 (A, B) or 5 (C-E) mice. Tumors were excised 18 hr after treatment and plated to determine clonogenicity. Hypoxic cytotoxicity is determined by the difference in surviving fraction between groups C and E, while comparison of A and B evaluates oxic cell killing. Total yield of clonogens was used as the key parameter if cell yields were affected by treatment. Results of this assay are illustrated for compound 3 (and TPZ) in FIG. 5.

[5] = AUC of free drug, single i.p. dose at maximum tolerated dose, mice, Table 1
[6] = plasma, mouse plasma, free drug, at the MTD or 75% of the MTD, Table 2, read-out: AUC
[7] = plasma, AUC of free drug, single i.p. dose at maximum tolerated dose, mice, Table 1, read-out: AUCf

SMILES	kmet [1] [min⁻¹]	solubility [2] [mM]	AUC ([3]; in vivo, AUC) [µM·h]	AUC ([3]; in vivo, AUCf) [µM·h]	HT29 log kill [4]	AUCf [3, 5] [µM·h]	AUC [3, 6] [µM·h]	AUC [3, 7] [µM·h]	activity against hypoxic cells in HT29 tumours ([4]; relative to radiation alone)
Nc1n[n+]([O-])c2ccccc2[n+]1[O-] [A, tirapazamine, reference compound]	0.60	8.9 (≈ 1590 µg/mL)	148	148	1.17	–	–	–	–
Cc1ccc2c(c1)[n+]([O-])c(N)n[n+]2[O-] [B, 6-Methyl-1,2,4-benzotriazin-3-amine 1,4-Dioxide]	0.20	3.02 (≈ 580 µg/mL)	–	–	2.165	188.7	216	–	–
Nc1n[n+]([O-])c2cc(Cl)ccc2[n+]1[O-] [C, 7-Chloro-1,2,4-benzotriazin-3-amine 1,4-Dioxide]	3.92	0.09 (≈ 19.1 µg/mL)	–	–	−0.007	–	2.7	1.9	–
Nc1n[n+]([O-])c2c(Cl)cccc2[n+]1[O-] [D, 8-Chloro-1,2,4-benzotriazin-3-amine 1,4-Dioxide]	10.03	2.22 (≈ 472 µg/mL)	–	–	−0.154	–	0.7	0.8	–
CS(=O)(=O)c1ccc2c(c1)[n+]([O-])nc(N)[n+]2[O-] [E, 7-(Methylsulfonyl)-1,2,4-benzotriazin-3-amine 1,4-Dioxide]	1.00	0.49 (≈ 126 µg/mL)	–	–	−0.028	–	15.6	15.6	–
Cc1ccc2c(c1)[n+]([O-])nc(NCCN(C)C)[n+]2[O-] [F, 7-Methyl-N-[2-(dimethylamino)ethyl]-1,2,4-benzotriazin-3-amine 1,4-Dioxide]	2.54	38.7 (≈ 10200 µg/mL)	–	–	0.196	–	3.9	3.5	–
CCCN(CCC)CCNc1n[n+]([O-])c2ccccc2[n+]1[O-] [G]	4.89	26 (≈ 7940 µg/mL)	–	–	0.248	7.2	7.1	–	–
Cc1ccc2c(c1)[n+]([O-])c(NCCN(C)C)n[n+]2[O-] [H, N^1,N^1-Dimethyl-N^2-(6-methyl-1,4-dioxido-1,2,4-benzotriazin-3-yl)-1,2-ethanediamine]	1.52	52 (≈ 13700 µg/mL)	–	–	1.001	69.0	67.8	–	significant activity
CCc1n[n+]([O-])c2ccccc2[n+]1[O-] [I]	1.91	14.5 (≈ 2770 µg/mL)	–	–	0.886	–	139	141	–
COCCc1n[n+]([O-])c2ccccc2[n+]1[O-] [J]	2.01	21 (≈ 4650 µg/mL)	–	–	0.8	–	83.5	79	–
[O-][n+]1nc(NCCCCCCNc2c3ccccc3nc3ccccc23)[n+]([O-])c2ccccc21 [K]	18.33	0.024 (≈ 10.9 µg/mL)	–	–	0.009	–	–	0.042	–
CN(CCCNC(=O)c1cccc2cc3ccccc3nc12)CCCNc1n[n+]([O-])c2ccccc2[n+]1[O-] [L]	9.18	0.45 (≈ 230 µg/mL)	–	–	−0.051	–	3.3	3.6	–
CN(CCCNC(=O)c1cccc2ccc(-c3ccncc3)nc12)CCCNc1n[n+]([O-])c2ccccc2[n+]1[O-] [M]	9.13	3.8 (≈ 2050 µg/mL)	–	–	0.138	–	1.2	0.9	–
Cc1ccc2c(c1)[n+]([O-])c(NCCCN(C)CCCNC(=O)c1cccc3cc4ccccc4nc13)n[n+]2[O-] [N]	4.74	32.4 (≈ 17000 µg/mL)	–	–	0.027	–	1.6	1.3	–

Reference: US7816521B2, “1,2,4-benzotriazine-1,4-dioxides” (Auckland Uniservices Limited, priority 2004, dated 2010)
